This is an account of results in the supplement of paper PMC6580486.

Structures are written as SMILES. Where only a bound is given, the exact number is not on record here.
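Also: alveolar rhabdomyosarcoma tumor culture.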

The subject of this assay is U23674 (mouse alveolar rhabdomyosarcoma primary culture).
`NS(=O)(=O)c1ccc(N=Cc2c(O)[nH]c3ccc4ncsc4c23)cc1` yielded an IC50 cell viability above 10 µM.
Molecule `COC(=O)Nc1nc2ccc(S(=O)(=O)c3ccc(NC(=O)Nc4cc(C(F)(F)F)ccc4F)cc3)cc2[nH]1` showed an IC50 cell viability above 10 µM.
As for `Cc1ccc2c(-c3ccnc(Nc4cccc(C(F)(F)F)c4)n3)c(-c3ccccc3)nn2n1`, the IC50 cell viability is above 10 µM.
In the case of `COc1ccc2cc(-c3c(-c4ccncc4)nc(-c4ccc([S+](C)[O-])cc4)n3C)ccc2c1` (stereo not drawn), the IC50 cell viability is above 10 µM.
Regarding `c1cnn2ncc(-c3ccnc(NCCCN4CCOCC4)n3)c2c1`, the IC50 cell viability is above 10 µM.
Regarding `C#Cc1cccc(Nc2ncnc3ccc(OCCCCNCCS(C)(=O)=O)cc23)c1`, the IC50 cell viability was 4.9 µM.
Regarding `NS(=O)(=O)c1ccc(Nc2ncc(-c3ccccc3)o2)cc1`, the IC50 cell viability was above 10 µM.
`Cc1ccc(O)cc1Nc1ccnc2cc(-c3ccccn3)ccc12` came in with an IC50 cell viability above 10 µM.
In turn, `NC(=O)Cc1ccccc1Oc1nccc(-c2c(-c3ccc(F)cc3)ncn2C2CCNCC2)n1` showed an IC50 cell viability above 10 µM.
Take `OCCCNc1nccc(-c2c(-c3ccc(F)cc3)nn3cc(C(F)(F)F)ccc23)n1`: the IC50 cell viability is above 10 µM.
Consider `FC(F)(F)c1ccc(-c2nn3ncccc3c2-c2ccnc(Nc3ccc4c(c3)OCCO4)n2)cc1`, for which the IC50 cell viability is above 10 µM.
With `CNC(=O)Oc1cc(C)c(/C=C/c2cncc(C(=O)NC)c2)c(C)c1`, the IC50 cell viability was above 10 µM.
For the molecule `CCN1CCC(CC(=O)Nc2n[nH]c3nc(-c4cccs4)c(Br)cc23)CC1`, the IC50 cell viability turned out to be 1.3 µM.
`CCn1c(-c2nonc2N)nc2c(C#CC(C)(C)O)ncc(OCC3CCNCC3)c21`: the IC50 cell viability is above 10 µM.
Under `O=C(Nc1ccc(Oc2ccc3nc(NC(=O)c4ccco4)[nH]c3c2)cc1)Nc1cc(C(F)(F)F)ccc1F` stands above 10 µM.
For `Oc1[nH]c2ccccc2c1C=Nc1ccc(-n2cncn2)cc1`, the IC50 cell viability was above 10 µM.
The figure for `COc1cc2ncn(-c3cc(OCc4ccccc4Cl)c(C(N)=O)s3)c2cc1OC` is above 10 µM; for `Cc1nc(-c2ccccc2)n2nc(NCCCN3CCOCC3)ncc12` it is above 10 µM; for `COc1cccc(/C=N/Nc2ncnc3c2cnn3-c2cccc(OC)c2)c1` it is above 10 µM.
Consider `Nc1nccc(-c2c(-c3ccc(F)cc3)ncn2C2CCC(O)CC2)n1` (stereo not drawn), for which the IC50 cell viability is above 10 µM.
On to `CN(c1ccc(NC(=O)NCCN2CCOCC2)cc1)c1ccnc(Nc2ccc(CS(C)(=O)=O)cc2)n1`, for which the IC50 cell viability was above 10 µM.
For `COc1ccc(Nc2ncc(-c3ccccc3)o2)cc1OC`, the IC50 cell viability is above 10 µM.
In turn, `COC(=O)Nc1nc2ccc(Oc3ccc(NC(=O)Nc4cc(C(F)(F)F)ccc4F)cc3)cc2s1` showed an IC50 cell viability above 10 µM.
On to `CC1(C)CC(n2cnc(-c3ccc(F)cc3)c2-c2ccnc(N)n2)CC(C)(C)N1`, for which the IC50 cell viability stood at 0.2 µM.
The molecule `COc1cc2ncn(-c3cc(OCc4ccccc4S(C)(=O)=O)c(C#N)s3)c2cc1OC` showed an IC50 cell viability above 10 µM.
In turn, `CC(=O)NCc1cccc(C#Cc2cncnc2Nc2ccc(OCc3cccc(F)c3)c(Cl)c2)c1` yielded an IC50 cell viability above 10 µM.
The figure for `CCc1nn2ncccc2c1-c1ccnc(NC2CC2)n1` is above 10 µM.
With `CCC(=O)Nc1ccc(C)c(-c2ccc(C(=O)NCC3CC3)cc2)c1`, the IC50 cell viability is above 10 µM.
On to `COc1cc2ncn(-c3cc(OCc4ccccc4C(F)(F)F)c(C(C)=O)s3)c2cc1OC`, for which the IC50 cell viability was above 10 µM.
For `c1ccc(Cc2nc3ccc(Nc4ncnc5ccccc45)cc3[nH]2)cc1`, the IC50 cell viability was above 10 µM.
The molecule `NS(=O)(=O)c1ccc(N=Nc2c(O)[nH]c3ccc(Cl)cc23)cc1` returned an IC50 cell viability above 10 µM.
Molecule `Cc1cccc2c(N=Nc3ccc(S(N)(=O)=O)cc3)c(O)[nH]c12` showed an IC50 cell viability above 10 µM.
`Cc1ccc(C(=O)NC2CCC2)cc1-c1ccc(C(=O)NCC2CC2)cc1` came in with an IC50 cell viability above 10 µM.
The molecule `COc1cc(Nc2nccc(Nc3ccc4c(C)[nH]nc4c3)n2)cc(OC)c1OC` registered an IC50 cell viability of 5.6 µM.
Molecule `COc1cc2ncn(-c3cc(O[C@H](C)c4ccccc4Cl)c(C(N)=O)s3)c2cc1OC` came in with an IC50 cell viability of 0.1 µM.
`CNC(=O)c1cncc(/C=C/c2c(C)cccc2C)c1`: the IC50 cell viability is above 10 µM.
The figure for `COc1cc2ncnc(Nc3ccc4c(cnn4Cc4ccccc4)c3)c2cc1OC` is above 10 µM.
The molecule `Cc1ccc(C(=O)NC2CCCCC2)cc1-c1ccc(C(=O)NCC2CC2)cc1` came in with an IC50 cell viability above 10 µM.
The figure for `CN1CCN(C(=O)c2ccc(NC(=O)Nc3ccc(N(C)c4ccnc(Nc5ccc(CS(C)(=O)=O)cc5)n4)cc3)cc2)CC1` is above 10 µM; for `COc1cccc(Nc2nccc(-c3cnn4ncccc34)n2)c1` it is 0.01 µM.
Take `COc1cccc(-n2ncc3c(N/N=C/c4ccc(C)cc4)ncnc32)c1`: the IC50 cell viability is above 10 µM.
`Cc1cccc(-c2[nH]ncc2-c2ccc3ncccc3n2)n1`: the IC50 cell viability is above 10 µM.
For `NC(=O)c1cc(-c2ccncc2)cc(-c2ccccc2)c1N`, the IC50 cell viability was above 10 µM.
`NS(=O)(=O)c1ccc(Nc2cc(-c3ccc(O)c(F)c3)[nH]n2)cc1` gave an IC50 cell viability above 10 µM.
On to `COc1cc(Nc2ncc(-c3ccccc3)o2)cc(OC)c1`, for which the IC50 cell viability is above 10 µM.
As to `CCn1c(-c2nonc2N)nc2ccccc21`, the IC50 cell viability is above 10 µM.
Regarding `CS(=O)(=O)CCNCc1ccc(-c2ccc3ncnc(Nc4ccc(OCc5ccccc5)cc4)c3c2)o1`, the IC50 cell viability was above 10 µM.
As for `CCCN(CCS(C)(=O)=O)Cc1ccc(-c2ccc3ncnc(Nc4ccc(OCc5cccc(F)c5)c(Cl)c4)c3c2)o1`, the IC50 cell viability was above 10 µM.
In the case of `CCCN1CCCC(c2ccc(Nc3nc(Nc4cc(F)ccc4C(N)=O)c4cc[nH]c4n3)c(OC)c2)C1` (stereo not drawn), the IC50 cell viability was determined as 1.4 µM.
In turn, `Cc1ccc(-c2cc3c(NC(=O)C4CC4)ncnc3o2)cc1` registered an IC50 cell viability above 10 µM.
With `NC(=O)c1cccc(Nc2nccc(Nc3cccc4[nH]ncc34)n2)c1`, the IC50 cell viability is above 10 µM.
Regarding `COc1cc2ncn(-c3cc(OCCc4ccccc4)c(C(N)=O)s3)c2cc1OC`, the IC50 cell viability was above 10 µM.
Molecule `FC(F)(F)CNc1nccc(-c2cnn3ncccc23)n1` had an IC50 cell viability of 4.4 µM.
Molecule `CCCN1CCC(Oc2cc(Nc3nc(Nc4cccc(F)c4C(N)=O)c4cc[nH]c4n3)c(OC)cc2Cl)CC1` yielded an IC50 cell viability of 3.2 µM.
`O=C1NC(=O)C(N2CCc3ccccc32)=C1c1ccc(Cl)cc1` registered an IC50 cell viability above 10 µM.
With `Cc1cc(O)cc(C)c1/C=C/c1cncc(C(N)=O)c1`, the IC50 cell viability was above 10 µM.
In the case of `Nc1nc(-c2ccccn2)c(-c2ccc3ncccc3n2)s1`, the IC50 cell viability was above 10 µM.
`CN1CCC(n2cnc(-c3ccc(F)cc3)c2-c2ccnc(NCCO)n2)CC1` had an IC50 cell viability above 10 µM.
The figure for `NS(=O)(=O)c1cccc(-c2cc3ccncc3cc2OCc2ccccc2)c1` is above 10 µM.
Turning to `NC(=O)c1sc(-n2cnc3ccccc32)cc1OCc1ccccc1Br`, the IC50 cell viability was above 10 µM.
The molecule `COc1cccc(-n2ncc3c(N/N=C/c4cccc(F)c4)ncnc32)c1` displayed an IC50 cell viability above 10 µM.
`NC(=O)c1ccc(Oc2nccc(-c3c(-c4ccc(F)cc4)ncn3C3CCNCC3)n2)cc1` yielded an IC50 cell viability above 10 µM.
Molecule `CCc1nccc2c1nc(-c1nonc1N)n2CC` yielded an IC50 cell viability above 10 µM.
